Measurements reported in patent US8846704B2, “Thiopyrimidine-based compounds and uses thereof” (YM Biosciences Austraila Pty Ltd, priority 2007, dated 2014).

What was measured:
human JAK2 = molecular target: T1, human JAK2 (Homo sapiens, UniProt O60674); test: Alphascreen tyrosine kinase enzyme assay, JAK2 kinase domain; type: biochemical; details: read-out: JAK2 IC50_nM
T1 construct: The kinase domain of human JAK2 was amplified; GST (N); made in house; host or cells: Sf9 insect cells (baculovirus)
Method in brief: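 JAK2 kinase domain expressed in baculovirus/Sf9 and glutathione-affinity purified. Compounds (final […]) pre-incubated 20 min with enzyme in 10 mM HEPES pH 7.5, MgCl2, NaCl, vanadate, 0.1% Tween 20.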

human JAK3 = molecular target: T2, human JAK3 (Homo sapiens, UniProt P52333); test: Alphascreen tyrosine kinase enzyme assay, JAK3 kinase domain; type: biochemical; details: read-out: JAK3 IC50_nM
T2 construct: The kinase domain of human JAK3 was amplified; GST (N); made in house; host or cells: Sf9 insect cells (baculovirus)
Method in brief: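 GST-affinity-purified human JAK3 kinase domain (baculovirus/Sf9) was pre-incubated 20 min with compound ([…]) in HEPES pH 7.5 buffer with MgCl2, vanadate and Tween 20. Biotinylated peptide substrate ([…]) and ATP were then added; phosphotyrosine was detected by AlphaScreen PY100 acceptor and streptavidin donor beads after 2–3 h.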

[1] = molecular target: T3, BaF3 TELJAK2 cells (BafT_J2) (Homo sapiens, UniProt O60674); test: Cellular screening, BaF3 TEL:JAK2 cells, Alamar Blue; type: cell-based; details: 40 hr, read-out: BafT_J2 IC50_nM
T3 construct: fused on or other part: TEL (ETV6) N-terminal part, coding nucleotides 1-487, serves as the oligomerising partner; It is fused through a Sal I site to the JAK2 kinase domain and expressed from pTRE2 in BaF3 cells bearing pTET-off; P41212 (Transcription factor ETV6)
Method in brief: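 Tet-off BaF3 cells carrying a TEL (nt 1-487)–JAK2 kinase-domain fusion, grown factor-independently in DMEM with 10% Tet-approved FBS without WEHI 3B medium. Compounds were diluted to 20 μM in screening plates, and cells (50,000–200,000 cell/mL at 1.1×) were incubated 40 hr at 37 °C, 5% CO2. Alamar Blue was then added for 4-6 hours; read at 544 nm.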

BaF3 wild-type cells = test: Cellular screening, BaF3 wild-type cells, Alamar Blue; type: cell-based; details: Mus musculus, 40 hr, read-out: BAF3wt IC50_nM
Method in brief: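 Compounds, screened from dilution plates at 20 μM, were added as 10× final stocks to cells grown in DMEM/10% FCS/10% WEHI 3B conditioned medium. Cells were seeded at 1.1× final (50,000–200,000 cells/mL) and incubated 40 hr at 37° C, 5% CO2. Viability was read at 544 nm after a further 4–6 hours with Alamar Blue.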

CTLL2 = test: Cellular screening, CTLL2 cells, Alamar Blue; type: cell-based; details: Mus musculus, CTLL-2, read-out: CTLL2 IC50_nM
Method in brief: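 Viability is read with Alamar Blue at 544 nm, the dye added for the final 4-6 hours. Compounds were incubated for 40 hr with CTLL2 cells taken from late-log-phase culture, at 37° C in 5% CO2.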

T1 sequence (O60674 849-1124 limits assumed): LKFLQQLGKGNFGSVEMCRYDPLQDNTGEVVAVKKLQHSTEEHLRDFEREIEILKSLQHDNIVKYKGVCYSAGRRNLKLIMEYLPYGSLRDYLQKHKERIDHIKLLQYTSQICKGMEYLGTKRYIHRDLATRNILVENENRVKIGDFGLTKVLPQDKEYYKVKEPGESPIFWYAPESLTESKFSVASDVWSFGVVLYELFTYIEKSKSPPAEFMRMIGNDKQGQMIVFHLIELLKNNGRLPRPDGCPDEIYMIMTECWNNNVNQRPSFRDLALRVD
T3 sequence (O60674 whole entry, change not shown, the tested form may be a part): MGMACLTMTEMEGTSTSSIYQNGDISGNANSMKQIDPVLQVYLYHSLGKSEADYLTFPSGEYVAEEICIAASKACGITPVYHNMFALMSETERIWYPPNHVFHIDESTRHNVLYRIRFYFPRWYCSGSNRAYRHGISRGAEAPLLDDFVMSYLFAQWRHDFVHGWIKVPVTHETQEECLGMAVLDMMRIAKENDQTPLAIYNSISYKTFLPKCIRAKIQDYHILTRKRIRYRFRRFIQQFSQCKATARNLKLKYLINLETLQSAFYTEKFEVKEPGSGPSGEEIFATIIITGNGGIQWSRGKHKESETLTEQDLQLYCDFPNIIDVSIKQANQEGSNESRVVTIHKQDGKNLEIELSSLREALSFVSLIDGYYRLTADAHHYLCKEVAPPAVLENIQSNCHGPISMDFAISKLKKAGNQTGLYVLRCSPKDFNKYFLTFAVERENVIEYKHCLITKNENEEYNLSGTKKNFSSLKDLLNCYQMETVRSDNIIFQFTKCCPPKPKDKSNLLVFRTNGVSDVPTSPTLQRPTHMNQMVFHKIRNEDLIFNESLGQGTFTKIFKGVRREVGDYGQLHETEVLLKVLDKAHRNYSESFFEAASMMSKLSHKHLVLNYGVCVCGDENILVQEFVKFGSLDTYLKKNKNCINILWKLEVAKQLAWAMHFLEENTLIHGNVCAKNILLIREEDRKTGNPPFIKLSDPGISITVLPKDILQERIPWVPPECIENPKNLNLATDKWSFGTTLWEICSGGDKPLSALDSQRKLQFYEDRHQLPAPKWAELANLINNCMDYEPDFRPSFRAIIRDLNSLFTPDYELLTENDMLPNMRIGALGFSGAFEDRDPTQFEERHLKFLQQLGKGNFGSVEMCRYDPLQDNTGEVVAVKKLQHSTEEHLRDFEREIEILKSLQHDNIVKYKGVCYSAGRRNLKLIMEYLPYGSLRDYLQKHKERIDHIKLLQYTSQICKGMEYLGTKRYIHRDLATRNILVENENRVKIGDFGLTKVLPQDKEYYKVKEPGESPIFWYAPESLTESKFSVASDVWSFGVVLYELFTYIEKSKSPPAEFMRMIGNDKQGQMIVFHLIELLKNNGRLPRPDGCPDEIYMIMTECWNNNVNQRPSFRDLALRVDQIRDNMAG
T2 sequence (P52333 822-1111 limits assumed): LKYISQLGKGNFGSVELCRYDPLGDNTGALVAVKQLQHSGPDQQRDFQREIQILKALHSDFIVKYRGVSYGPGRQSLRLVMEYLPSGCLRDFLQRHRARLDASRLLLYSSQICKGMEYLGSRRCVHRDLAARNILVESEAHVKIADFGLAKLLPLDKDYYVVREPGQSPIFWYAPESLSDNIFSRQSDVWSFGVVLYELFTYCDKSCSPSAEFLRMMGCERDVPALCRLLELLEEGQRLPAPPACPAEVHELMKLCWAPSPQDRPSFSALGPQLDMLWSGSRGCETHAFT

Compound	IC50 (human JAK2) [nM]	IC50 (human JAK3) [nM]	GI50 [1] [nM]	IC50 (BaF3 wild-type cells) [nM]	IC50 (CTLL2) [nM]
C=CC(=O)Nc1ccc(Sc2nc(Nc3ccc(N4CCOCC4)cc3)ncc2C)cc1CC [Compound 260, N-(2-ethyl-4-(5-methyl-2-(4-morpholinophenylao)pyrimidin-4-ylthio)phenyl)acrylamide]	> 1000	< 100	> 20000	> 20000	< 5000
OCc1cccc(Sc2ccnc(Nc3ccc(N4CCOCC4)cc3)n2)c1 [Compound 62, (3-(2-(4-Morpholinophenylamino)pyrimidin-4-ylthio)phenyl)methanol]	< 500	< 500	< 20000	< 20000	< 20000
C=CC(=O)Nc1ccc(Sc2nc(Nc3cccc(NS(C)(=O)=O)c3)ncc2C)cc1 [Compound 288, N-(4-(5-methyl-2-(3-(methylsulfonamido)phenylao)pyrimidin-4-ylthio)phenyl)acrylamide]	> 1000	< 100	< 20000	< 20000	< 1000
C=CC(=O)Nc1ccc(Sc2nc(Nc3ccc(N4CCOCC4)cc3)ncc2C)c(C)c1 [Compound 163, N-(3-methyl-4-(5-methyl-2-(4-morpholinophenylao)pyrimidin-4-ylthio)phenyl)acrylamide]	> 1000	< 100	> 20000	> 20000	< 1000
O=C(/C=C\Cl)Nc1ccc(Sc2ccnc(Nc3ccc(N4CCOCC4)cc3)n2)cc1 [Compound 346, (Z)-3-chloro-N-(4-(2-(4-morpholinophenylao)pyrimidin-4-ylthio)phenyl)acrylamide]	> 1000	< 100	< 1000	< 1000	< 20000
C=CC(=O)Nc1cccc(Sc2ccnc(Nc3ccc(N4CCOCC4)cc3)n2)c1 [Compound 23, N-(3-(2-(4-morpholinophenylamino)pyrimidin-4-ylthio)phenyl)acrylamide]	> 1000	< 100	< 20000	< 20000	< 1000
C=CC(=O)Nc1ccc(Sc2nc(Nc3ccc(NS(C)(=O)=O)c(OC)c3)ncc2C)cc1 [Compound 296, N-(4-(2-(3-methoxy-4-(methylsulfonamido)phenylao)-5-methylpyrimidin-4-ylthio)phenyl)acrylamide]	> 1000	< 100	< 5000	< 5000	< 1000
C=CC(=O)Nc1ccc(Sc2ccnc(Nc3cccc(N4CCOCC4)c3)n2)cc1 [Compound 77, N-(4-(2-(3-morpholinophenylao)pyrimidin-4-ylthio)phenyl)acrylamide]	> 1000	< 100	< 5000	< 5000	< 1000
Nc1ccc(Sc2nc(Nc3ccc(N4CCOCC4)cc3)ncc2F)cc1 [Compound 263, 4-(4-aophenylthio)-5-fluoro-N-(4-morpholinophenyl)pyrimidin-2-ae]	> 1000	< 500	< 5000	< 5000	> 20000
C=CC(=O)Nc1ccc(Sc2nc(Nc3ccc(N4CCCC(O)C4)cc3)ncc2C)cc1 (stereo not drawn) [Compound 299, N-(4-(2-(4-(3-hydroxypiperidin-1-yl)phenylao)-5-methylpyrimidin-4-ylthio)phenyl)acrylamide]	> 1000	< 100	< 20000	< 20000	< 1000
Cc1cnc(Nc2ccc(N3CCOCC3)cc2)nc1Sc1ccc(N)nc1 [Compound 262, 4-(6-aopyridin-3-ylthio)-5-methyl-N-(4-morpholinophenyl)pyrimidin-2-ae]	< 500	< 500	< 20000	> 20000	> 20000
c1cc(Sc2ccc(Cn3cnnn3)cc2)nc(Nc2ccc(N3CCOCC3)cc2)n1 [Compound 109, 4-(4-((1H-tetrazol-1-yl)methyl)phenylthio)-N-(4-morpholinophenyl)pyrimidin-2-ae]	< 1000	< 500	< 20000	< 20000	> 20000
CNC(=O)/C=C\C(=O)Nc1ccc(Sc2nc(Nc3ccc(N4CCOCC4)cc3)ncc2C)cc1 [Compound 389, N1-methyl-N4-(4-(5-methyl-2-(4-morpholinophenylao)pyrimidin-4-ylthio)phenyl)maleamide]	> 1000	< 100	< 20000	< 20000	< 1000
C=CC(=O)Nc1ccc(Sc2nc(Nc3ccc(N4CCC(CO)CC4)cc3)ncc2C)cc1 [Compound 286, N-(4-(2-(4-(4-(hydroxymethyl)piperidin-1-yl)phenylao)-5-methylpyrimidin-4-ylthio)phenyl)acrylamide]	> 1000	< 100	> 20000	> 20000	< 1000
N#Cc1ncn(Cc2ccc(Sc3ccnc(Nc4ccc(N5CCOCC5)cc4)n3)cc2)c1C#N [Compound 201, 1-(4-(2-(4-morpholinophenylao)pyrimidin-4-ylthio)benzyl)-1H-imidazole-4,5-dicarbonitrile]	> 1000	< 100	< 5000	< 5000	< 5000
C=CC(=O)Nc1ccc(Sc2nc(Nc3ccc(N4CCOCC4)cc3)ncc2F)cc1 [Compound 268, N-(4-(5-fluoro-2-(4-morpholinophenylao)pyrimidin-4-ylthio)phenyl)acrylamide]	> 1000	< 100	> 20000	> 20000	< 1000
N#Cc1nnnn1Cc1ccc(Sc2ccnc(Nc3ccc(N4CCOCC4)cc3)n2)cc1 [Compound 155, 1-(4-(2-(4-morpholinophenylao)pyrimidin-4-ylthio)benzyl)-1H-tetrazole-5-carbonitrile]	> 1000	< 100	< 20000	< 20000	< 5000
C=CC(=O)Nc1ccc(Nc2nccc(SC)n2)cc1 [Compound 13, N-(4-(4-(methylthio)pyrimidin-2-ylao)phenyl)acrylamide]	> 1000	< 100	< 20000	> 20000	> 20000
Cc1cnc(Nc2ccc(N3CCOCC3)cc2)nc1Sc1ccc(NC(=O)/C=C\C(=O)O)cc1 [Compound 380, (Z)-4-(4-(5-methyl-2-(4-morpholinophenylao)pyrimidin-4-ylthio)phenylao)-4-oxobut-2-enoic acid]	> 1000	< 100	> 20000	> 20000	> 20000
Cc1cnc(Nc2cccc(O)c2)nc1Sc1ccc(NC(=O)CCl)cc1 [Compound 194, 2-chloro-N-(4-(2-(3-hydroxyphenylao)-5-methylpyrimidin-4-ylthio)phenyl)acetamide]	> 1000	< 100	< 5000	< 5000	< 1000
C=CC(=O)Nc1ccc(Sc2nc(Nc3ccc(N4CCN(C)CC4)cc3)ncc2C)cc1 [Compound 239, N-(4-(5-methyl-2-(4-(4-methylpiperazin-1-yl)phenylao)pyrimidin-4-ylthio)phenyl)acrylamide]	< 1000	< 100	< 5000	< 5000	< 1000
Cc1cc(N)ccc1Sc1nc(Nc2ccc(N3CCOCC3)cc2)ncc1C [Compound 162, 4-(4-ao-2-methylphenylthio)-5-methyl-N-(4-morpholinophenyl)pyrimidin-2-ae]	< 1000	< 100	< 20000	< 20000	< 5000
O=C(/C=C/Cl)Nc1cccc(Sc2ccnc(Nc3ccc(N4CCOCC4)cc3)n2)c1 [Compound 340, (E)-3-chloro-N-(3-(2-(4-morpholinophenylao)pyrimidin-4-ylthio)phenyl)acrylamide]	> 1000	< 100	< 20000	< 5000	< 5000
C=CC(=O)Nc1ccc(Sc2ccnc(Nc3ccc(N4CCOCC4)cc3)n2)cc1OC [Compound 123, N-(2-methoxy-4-(2-(4-morpholinophenylao)pyrimidin-4-ylthio)phenyl)acrylamide]	> 1000	< 100	< 5000	< 5000	< 20000
